In article PMC9607644, “Glycoconjugation of Quinoline Derivatives Using the C-6 Position in Sugars as a Strategy for Improving the Selectivity and Cytotoxicity of Functionalized Compounds” (Molecules, 2022):

What was measured:
[1] = tested on: HCT-116 cells; experiment: MTT viability with GLUT1 inhibitor EDG, HCT-116; format: cell-based, human; conditions: 100 µM EDG, 72 h
Experimental: (§1) To investigate the possible interaction of the tested compounds with glucose receptors and thus to check whether they target the Warburg effect, tests of the influence of the presence of the GLUT inhibitor on the effectiveness of the glycoconjugates were carried out. For this, cells were treated each time with the test compounds in the presence of 100 µM of the GLUT1 inhibitor 4,6-O-ethylidene-α-D-glucose (EDG).

[2] = tested on: MCF-7 cells; experiment: MTT viability with GLUT1 inhibitor EDG, MCF-7; format: cell-based, human; conditions: 100 µM EDG, 72 h
Experimental: as §1

[3] = tested on: HCT-116 cells; experiment: Annexin V-FITC/PI apoptosis flow cytometry, HCT-116; format: cell-based, human; conditions: IC50 dose, 24 h
Description: (§2) Apoptosis is a natural biological process involving programmed cell death and plays an important role in maintaining correct homeostasis between cell proliferation and cell death. This is in contrast to necrosis, which is accompanied by acute inflammation, preceded by cell degradation due to the loss of the integrity of the cell membrane. It is possible to distinguish viable cells from apoptotic and necrotic cell fractions using Annexin V-FITC and Propidium Iodide (PI). Annexin V-FITC labels phosphatidylserine residues that, after the start of apoptosis, are located on the outer surface of the cell membrane, enabling the identification of cells in the early stages of apoptosis. PI binds stoichiometrically to intracellular DNA during late apoptosis and necrosis when the cell membrane has been damaged. This combination allows for the differentiation of early apoptotic (A+/P−), late apoptotic (A+/P+), necrosis (A−/P+), and normal (A−/P−) cells that can be quantified by flow cytometry.
(§3) The cell cycle and the type of cell death induced by the test compounds were measured by using flow cytometry according to the manufacturer’s protocol. […] Control cells were grown with fresh medium supplemented with 0.5% DMSO. After 24 h of incubation, the cells were collected by trypsinization. Then, samples were centrifuged (3 min, 2000 rpm, RT) and washed with PBS, after which the cells were centrifuged again (3 min, 2000 rpm, RT) and the supernatant was carefully removed. The resulting precipitate contained cells, which were used for flow cytometry experiments.
(§4) The fraction of dead cells after treatment with the test compounds were detected using the FITC Annexin-V Apoptosis Detection Kit with PI (BioLegend, San Diego, CA, USA). […] 250 μL of the Annexin-V Binding Buffer was then added and the samples were incubated in the dark on ice for 15 min.

[4] = tested on: MCF-7 cells; experiment: Annexin V-FITC/PI apoptosis flow cytometry, MCF-7; format: cell-based, human; conditions: IC50 dose, 24 h
Description: as §2, §3, §4

[5] = tested on: NHDF-Neo cells; experiment: Cell cycle analysis by flow cytometry, NHDF-Neo; format: cell-based, human; conditions: IC50 dose, 24 h
Description: After determining the type of cell death caused by the test compounds, the flow cytometry technique was used to study their influence on potential changes in the course of the cell cycle of the HCT-116, MCF-7, and NHDF-Neo lines. The cell cycle is the sequence of growth and division of cells, both normal and cancerous. This process begins from the resting phase (G0) through the active growth phases (G1, S, G2), leading to mitosis (M) in which the cell’s nucleus divides. […] After this time, cells were harvested and treated with a buffer to lysate the cells and isolate the cell nuclei. Propidium iodide was used to assess the amount of DNA in particular phases of the cell cycle. Histograms of DNA content in cells are presented in the Supplementary Materials (Figure S74).
The cell cycle and the type of cell death induced by the test compounds were measured by using flow cytometry according to the manufacturer’s protocol. The cells were seeded into 6-well plates at a density of 3 × 10^5 (HCT-116) or 4 × 10^5 (MCF-7, NHDF-Neo) per well (3 mL) and allowed to attach for 24 h under standard conditions with 5% CO2 at 37 °C. The following day, the medium was removed and cells were treated with solutions of test compounds in fresh medium at a dose equal to their IC50 values. Control cells were grown with fresh medium supplemented with 0.5% DMSO. After 24 h of incubation, the cells were collected by trypsinization. Then, samples were centrifuged (3 min, 2000 rpm, RT) and washed with PBS, after which the cells were centrifuged again (3 min, 2000 rpm, RT) and the supernatant was carefully removed. The resulting precipitate contained cells, which were used for flow cytometry experiments.
For cell cycle analysis, the cells were suspended in 300 μL of hypotonic buffer (consisting of: sodium citrate dihydrate 1 g/L, propidium iodide (PI) 1 mg/mL, RNAse A 10 mg/mL (EURx, Gdańsk, Poland), Triton X-100 1:9), mixed gently and incubated in the dark at room temperature for 20–30 min. […]

[6] = tested on: HCT-116 cells; experiment: MTT cytotoxicity assay, HCT-116; format: cell-based, human; conditions: Homo sapiens, HCT-116; MTT, incubation time 24 h
Experimental: (§5) An in vitro biological test package was performed for the obtained derivatives. […] The MTT test is a colorimetric method for detecting proliferating cells. It is based on the ability of the enzyme mitochondrial dehydrogenase to convert yellow tetrazole salt (MTT) into purple formazan. The amount of the product formed in the reaction, determined spectrophotometrically, is proportional to the number of living cells.
(§6) The in vitro cytotoxicity of the test compounds was determined by the MTT (3-[4,5–dimethylthiazol-2-yl]-2,5-diphenyltetrazolium bromide) test (Sigma-Aldrich, Taufkirchen, Germany) according to the manufacturer’s protocol. At the beginning, for each cell line were determined the optimal seeding densities to ensure exponential growth throughout the experimental period. The confluent layer of cells were trypsinized, collected, and suspended in a growth medium. […] Then, the culture medium was replaced with solutions of different concentrations of test compounds in a fresh medium. Stock solutions of test compounds were prepared in DMSO and diluted to final concentrations with appropriate volumes of the growth medium directly before the experiment. Cells suspended in a medium supplemented with 0.5% DMSO (the amount of DMSO necessary to dissolve the highest dose of the respective sample) were used as a control of the experiment. […] The compound-treated cells were incubated for a further 24–72 h. […] After this time, the MTT dye was carefully removed, and the acquired formazan crystals were dissolved by DMSO (Chempur, Piekary Śląskie, Poland). The proliferation was evaluated by measuring the formazan product’s absorbance at a wavelength of 570 nm with a microplate spectrophotometer (Epoch, BioTek, Winooski, VT, USA). All experiments were conducted in triplicate with four technical repeats for each tested concentration. Results were expressed as the percentage change in the viability of the test cells relative to the untreated control cells and calculated as the inhibitory concentration (IC50). […] The results are expressed as the average value ± standard deviation (SD).

[7] = tested on: MCF-7 cells; experiment: MTT cytotoxicity assay, MCF-7; format: cell-based, human; conditions: Homo sapiens, MCF7; MTT, incubation time 72 h
Experimental: as §5, §6

SMILES	effect of EDG inhibitor in words, HCT-116 [1]	effect of EDG inhibitor in words, MCF-7 [2]	apoptosis induction in words, HCT-116 [3]	apoptosis induction in words, MCF-7 [4]	cell cycle phase distribution in words, NHDF-Neo [5]	IC50 [6]	IC50 [7]	melting point
Oc1cccc2cccnc12 [Compound 8HQ, 8-hydroxyquinoline, reference compound]	did not have any effect on the cellular uptake	did not have any effect on the cellular uptake	results were similar to the control fraction	results were similar to the control fraction	subG1 phase increasing	–	–	–
CC(=O)O[C@@H]1[C@@H](OC(C)=O)[C@@H](O[C@H]2O[C@H](CN=[N+]=[N-])[C@@H](OC(C)=O)[C@H](OC(C)=O)[C@H]2OC(C)=O)O[C@H](CN=[N+]=[N-])[C@H]1OC(C)=O [Compound 23, 2,3,4,2′,3′,4′-hexa-O-acetyl-6,6′-diazido-6,6′-dideoxy-D-trehalose]	–	–	–	–	–	> 800 µM	> 800 µM	92 to 93 °C
